Experiments:
Experiment in all cases: Kinase inhibitory activity profiling of RI-962@10 µM (406 kinases, Eurofins)
Format in all cases: biochemical
[1] = target: panel of human kinases (kinase named in endpoint) (Homo sapiens, UniProt O75716); details: 10 µM; read-out: Activity (%), STK16(h)
Summary of the method: (§1)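 Radiometric filter-binding kinase assays: enzyme preincubated 15 min with compound in 8 mM MOPS pH 7.0, 0.2 mM EDTA, 250 μM peptide substrate, 10 mM magnesium acetate, 10 μM [γ-33P]-ATP. Reaction started with Mg/ATP, run 40 min at room temperature, stopped with phosphoric acid; 33P incorporation read by scintillation counting. Other kinases by similar protocols.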

[2] = target: panel of human kinases (kinase named in endpoint) (Homo sapiens, UniProt O75747); details: 10 µM; read-out: Activity (%), PI3KC2g(h)
Summary of the method: as §1

[3] = target: panel of human kinases (kinase named in endpoint) (Homo sapiens, UniProt P00533, L858R/T790M); details: 10 µM; read-out: Activity (%), EGFR(T790M,L858R)(h)
Summary of the method: as §1

[4] = target: panel of human kinases (kinase named in endpoint) (Homo sapiens, UniProt P04049); details: 10 µM; read-out: Activity (%), c-RAF(h)
Summary of the method: as §1

[5] = target: panel of human kinases (kinase named in endpoint) (Homo sapiens, UniProt P10721); details: 10 µM; read-out: Activity (%), cKit(h)
Summary of the method: as §1

[6] = target: panel of human kinases (kinase named in endpoint) (Homo sapiens, UniProt P19784); details: 10 µM; read-out: Activity (%), CK2α2(h)
Summary of the method: as §1

[7] = target: panel of human kinases (kinase named in endpoint) (Homo sapiens, UniProt P29320); details: 10 µM; read-out: Activity (%), EphA3(h)
Summary of the method: as §1

[8] = target: panel of human kinases (kinase named in endpoint) (Homo sapiens, UniProt P35968); details: 10 µM; read-out: Activity (%), KDR(h)
Summary of the method: as §1

[9] = target: panel of human kinases (kinase named in endpoint) (Homo sapiens, UniProt P36896); details: 10 µM; read-out: Activity (%), ALK4(h)
Summary of the method: as §1

[10] = target: panel of human kinases (kinase named in endpoint) (Homo sapiens, UniProt P42338); details: 10 µM; read-out: Activity (%), PI3 Kinase (p110b/p85a)(h)
Summary of the method: as §1

[11] = target: panel of human kinases (kinase named in endpoint) (Homo sapiens, UniProt P42680); details: 10 µM; read-out: Activity (%), Tec(h) activated
Summary of the method: as §1

[12] = target: panel of human kinases (kinase named in endpoint) (Homo sapiens, UniProt P42681); details: 10 µM; read-out: Activity (%), Txk(h)
Summary of the method: as §1

[13] = target: panel of human kinases (kinase named in endpoint) (Homo sapiens, UniProt P53778); details: 10 µM; read-out: Activity (%), SAPK3(h)
Summary of the method: as §1

[14] = target: panel of human kinases (kinase named in endpoint) (Homo sapiens, UniProt P54762); details: 10 µM; read-out: Activity (%), EphB1(h)
Summary of the method: as §1

[15] = target: panel of human kinases (kinase named in endpoint) (Homo sapiens, UniProt Q04912); details: 10 µM; read-out: Activity (%), Ron(h)
Summary of the method: as §1

[16] = target: panel of human kinases (kinase named in endpoint) (Homo sapiens, UniProt Q15418); details: 10 µM; read-out: Activity (%), Rsk1(h)
Summary of the method: as §1

[17] = target: panel of human kinases (kinase named in endpoint) (Homo sapiens, UniProt Q15759); details: 10 µM; read-out: Activity (%), SAPK2b(h)
Summary of the method: as §1

[18] = target: panel of human kinases (kinase named in endpoint) (Homo sapiens, UniProt Q5S007); details: 10 µM; read-out: Activity (%), LRRK2(h)
Summary of the method: as §1

[19] = target: panel of human kinases (kinase named in endpoint) (Homo sapiens, UniProt Q7KZI7); details: 10 µM; read-out: Activity (%), PAR-1Bα(h)
Summary of the method: as §1

[20] = target: panel of human kinases (kinase named in endpoint) (Homo sapiens, UniProt Q8NE63); details: 10 µM; read-out: Activity (%), HIPK4(h)
Summary of the method: as §1

[21] = target: panel of human kinases (kinase named in endpoint) (Homo sapiens, UniProt Q8TF76); details: 10 µM; read-out: Activity (%), Haspin(h)
Summary of the method: as §1

[22] = target: panel of human kinases (kinase named in endpoint) (Homo sapiens, UniProt Q96PY6); details: 10 µM; read-out: Activity (%), NEK1(h)
Summary of the method: as §1

[23] = target: panel of human kinases (kinase named in endpoint) (Homo sapiens, UniProt Q9H2X6); details: 10 µM; read-out: Activity (%), HIPK2(h)
Summary of the method: as §1

[24] = target: panel of human kinases (kinase named in endpoint) (Homo sapiens, UniProt Q9P2K8); details: 10 µM; read-out: Activity (%), GCN2(h)
Summary of the method: as §1

[25] = target: panel of human kinases (kinase named in endpoint) (Homo sapiens, UniProt Q9UKI8); details: 10 µM; read-out: Activity (%), TLK1(h)
Summary of the method: as §1

[26] = target: panel of human kinases (kinase named in endpoint) (Homo sapiens, UniProt Q9Y463); details: 10 µM; read-out: Activity (%), DYRK1B(h)
Summary of the method: as §1

Sequence of panel of human kinases (kinase named in endpoint) (Homo sapiens, UniProt Q96PY6) (Q96PY6 whole entry): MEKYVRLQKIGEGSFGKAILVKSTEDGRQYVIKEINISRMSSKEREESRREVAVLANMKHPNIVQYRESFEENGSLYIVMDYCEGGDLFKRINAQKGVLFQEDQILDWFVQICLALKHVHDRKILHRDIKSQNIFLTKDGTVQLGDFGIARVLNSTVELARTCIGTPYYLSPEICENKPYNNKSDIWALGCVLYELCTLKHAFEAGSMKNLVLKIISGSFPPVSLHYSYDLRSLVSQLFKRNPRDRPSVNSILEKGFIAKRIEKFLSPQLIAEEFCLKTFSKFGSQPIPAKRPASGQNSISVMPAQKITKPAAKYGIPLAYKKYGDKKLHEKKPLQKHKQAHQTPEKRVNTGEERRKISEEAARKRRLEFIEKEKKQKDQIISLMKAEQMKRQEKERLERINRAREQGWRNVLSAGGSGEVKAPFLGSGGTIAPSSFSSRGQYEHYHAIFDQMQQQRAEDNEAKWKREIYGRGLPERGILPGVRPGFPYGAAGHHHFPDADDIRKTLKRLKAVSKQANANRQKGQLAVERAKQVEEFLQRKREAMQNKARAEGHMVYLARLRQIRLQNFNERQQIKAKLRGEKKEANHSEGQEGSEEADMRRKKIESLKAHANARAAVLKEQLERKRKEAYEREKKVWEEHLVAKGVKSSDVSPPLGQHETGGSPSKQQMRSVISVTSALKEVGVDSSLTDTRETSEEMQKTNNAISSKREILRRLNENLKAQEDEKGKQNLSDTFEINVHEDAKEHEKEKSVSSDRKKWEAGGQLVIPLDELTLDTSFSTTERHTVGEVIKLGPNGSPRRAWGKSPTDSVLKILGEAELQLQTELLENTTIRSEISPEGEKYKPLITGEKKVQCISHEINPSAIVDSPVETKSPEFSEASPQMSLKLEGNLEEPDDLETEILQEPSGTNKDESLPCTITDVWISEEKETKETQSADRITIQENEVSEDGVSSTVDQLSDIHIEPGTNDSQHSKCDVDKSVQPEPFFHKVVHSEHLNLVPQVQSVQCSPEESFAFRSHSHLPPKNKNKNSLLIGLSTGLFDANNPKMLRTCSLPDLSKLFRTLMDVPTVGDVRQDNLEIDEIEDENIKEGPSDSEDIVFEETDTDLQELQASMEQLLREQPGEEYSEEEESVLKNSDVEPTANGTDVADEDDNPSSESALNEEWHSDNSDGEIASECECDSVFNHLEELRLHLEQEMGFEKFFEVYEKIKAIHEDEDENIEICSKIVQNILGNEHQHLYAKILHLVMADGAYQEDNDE
Sequence of panel of human kinases (kinase named in endpoint) (Homo sapiens, UniProt Q7KZI7) (Q7KZI7 whole entry): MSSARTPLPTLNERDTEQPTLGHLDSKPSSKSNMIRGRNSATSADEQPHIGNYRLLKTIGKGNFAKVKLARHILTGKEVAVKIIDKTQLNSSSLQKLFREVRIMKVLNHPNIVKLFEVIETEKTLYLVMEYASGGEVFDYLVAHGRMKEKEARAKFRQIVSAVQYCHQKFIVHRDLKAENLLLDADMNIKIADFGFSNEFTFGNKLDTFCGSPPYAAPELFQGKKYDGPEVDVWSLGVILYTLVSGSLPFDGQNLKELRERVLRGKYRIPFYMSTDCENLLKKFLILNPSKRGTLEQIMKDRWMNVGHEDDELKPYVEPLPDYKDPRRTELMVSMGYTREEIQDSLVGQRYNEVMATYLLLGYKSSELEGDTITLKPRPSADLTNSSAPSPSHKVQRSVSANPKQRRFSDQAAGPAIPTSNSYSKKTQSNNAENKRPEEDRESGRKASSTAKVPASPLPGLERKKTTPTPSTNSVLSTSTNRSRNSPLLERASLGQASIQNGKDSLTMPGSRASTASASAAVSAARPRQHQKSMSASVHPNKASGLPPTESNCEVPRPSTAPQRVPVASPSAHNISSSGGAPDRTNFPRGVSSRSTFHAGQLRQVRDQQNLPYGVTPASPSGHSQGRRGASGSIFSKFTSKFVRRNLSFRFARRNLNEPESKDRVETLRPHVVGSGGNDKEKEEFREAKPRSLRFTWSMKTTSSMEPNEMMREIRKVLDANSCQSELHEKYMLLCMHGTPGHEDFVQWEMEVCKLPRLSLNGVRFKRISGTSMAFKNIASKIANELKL
Sequence of panel of human kinases (kinase named in endpoint) (Homo sapiens, UniProt P35968) (P35968 20-1356): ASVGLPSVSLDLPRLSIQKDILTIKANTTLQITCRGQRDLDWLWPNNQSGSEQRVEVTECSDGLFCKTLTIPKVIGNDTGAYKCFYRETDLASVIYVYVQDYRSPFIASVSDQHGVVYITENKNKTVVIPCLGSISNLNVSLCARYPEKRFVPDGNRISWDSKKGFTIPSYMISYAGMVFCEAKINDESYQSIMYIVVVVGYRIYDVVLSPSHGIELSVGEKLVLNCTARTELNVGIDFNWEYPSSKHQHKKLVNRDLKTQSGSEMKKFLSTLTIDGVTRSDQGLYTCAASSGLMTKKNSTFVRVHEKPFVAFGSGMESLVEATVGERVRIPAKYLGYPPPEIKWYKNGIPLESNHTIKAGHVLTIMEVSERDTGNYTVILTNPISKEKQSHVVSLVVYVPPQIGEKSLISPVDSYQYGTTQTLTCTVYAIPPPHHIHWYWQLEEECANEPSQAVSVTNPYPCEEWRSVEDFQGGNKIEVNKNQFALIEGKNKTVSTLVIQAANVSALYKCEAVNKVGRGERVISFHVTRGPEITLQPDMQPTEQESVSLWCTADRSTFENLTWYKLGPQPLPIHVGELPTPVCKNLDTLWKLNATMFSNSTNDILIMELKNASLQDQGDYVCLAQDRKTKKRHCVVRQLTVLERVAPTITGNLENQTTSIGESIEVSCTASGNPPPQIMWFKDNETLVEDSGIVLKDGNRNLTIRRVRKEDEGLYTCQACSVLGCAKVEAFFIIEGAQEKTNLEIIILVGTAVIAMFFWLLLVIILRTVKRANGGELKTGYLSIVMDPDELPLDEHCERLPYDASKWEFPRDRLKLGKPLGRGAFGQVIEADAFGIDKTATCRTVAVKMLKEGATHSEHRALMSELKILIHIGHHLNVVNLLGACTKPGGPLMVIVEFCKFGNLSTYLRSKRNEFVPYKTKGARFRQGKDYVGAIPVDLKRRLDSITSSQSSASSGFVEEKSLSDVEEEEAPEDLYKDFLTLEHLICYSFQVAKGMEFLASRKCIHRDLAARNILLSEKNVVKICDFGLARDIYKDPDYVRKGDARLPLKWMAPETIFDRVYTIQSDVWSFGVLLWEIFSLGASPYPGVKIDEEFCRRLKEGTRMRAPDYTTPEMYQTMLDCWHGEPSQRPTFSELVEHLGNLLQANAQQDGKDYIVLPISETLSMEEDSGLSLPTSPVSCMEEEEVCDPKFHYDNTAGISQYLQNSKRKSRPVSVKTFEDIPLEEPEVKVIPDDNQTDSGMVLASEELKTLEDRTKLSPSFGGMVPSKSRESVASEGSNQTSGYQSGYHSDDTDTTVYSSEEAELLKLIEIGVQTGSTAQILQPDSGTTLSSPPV
Sequence of panel of human kinases (kinase named in endpoint) (Homo sapiens, UniProt P04049) (P04049 whole entry): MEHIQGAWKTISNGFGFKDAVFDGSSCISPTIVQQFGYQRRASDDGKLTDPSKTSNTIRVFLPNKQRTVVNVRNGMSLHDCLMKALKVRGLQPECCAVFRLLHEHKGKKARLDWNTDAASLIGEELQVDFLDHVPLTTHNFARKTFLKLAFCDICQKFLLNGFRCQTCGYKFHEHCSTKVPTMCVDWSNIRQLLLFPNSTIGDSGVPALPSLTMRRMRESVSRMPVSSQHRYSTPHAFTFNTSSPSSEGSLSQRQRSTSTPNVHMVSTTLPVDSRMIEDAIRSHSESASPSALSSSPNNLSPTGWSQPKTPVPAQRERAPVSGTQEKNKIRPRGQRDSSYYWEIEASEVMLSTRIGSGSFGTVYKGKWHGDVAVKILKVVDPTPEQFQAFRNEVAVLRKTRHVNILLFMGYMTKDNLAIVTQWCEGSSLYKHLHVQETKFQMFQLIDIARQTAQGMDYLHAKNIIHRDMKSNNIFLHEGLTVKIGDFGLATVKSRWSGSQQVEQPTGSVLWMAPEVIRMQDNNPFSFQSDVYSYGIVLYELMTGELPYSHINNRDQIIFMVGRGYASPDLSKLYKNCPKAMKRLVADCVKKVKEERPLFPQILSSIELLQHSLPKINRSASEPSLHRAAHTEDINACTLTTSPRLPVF
Sequence of panel of human kinases (kinase named in endpoint) (Homo sapiens, UniProt P29320) (P29320 21-983): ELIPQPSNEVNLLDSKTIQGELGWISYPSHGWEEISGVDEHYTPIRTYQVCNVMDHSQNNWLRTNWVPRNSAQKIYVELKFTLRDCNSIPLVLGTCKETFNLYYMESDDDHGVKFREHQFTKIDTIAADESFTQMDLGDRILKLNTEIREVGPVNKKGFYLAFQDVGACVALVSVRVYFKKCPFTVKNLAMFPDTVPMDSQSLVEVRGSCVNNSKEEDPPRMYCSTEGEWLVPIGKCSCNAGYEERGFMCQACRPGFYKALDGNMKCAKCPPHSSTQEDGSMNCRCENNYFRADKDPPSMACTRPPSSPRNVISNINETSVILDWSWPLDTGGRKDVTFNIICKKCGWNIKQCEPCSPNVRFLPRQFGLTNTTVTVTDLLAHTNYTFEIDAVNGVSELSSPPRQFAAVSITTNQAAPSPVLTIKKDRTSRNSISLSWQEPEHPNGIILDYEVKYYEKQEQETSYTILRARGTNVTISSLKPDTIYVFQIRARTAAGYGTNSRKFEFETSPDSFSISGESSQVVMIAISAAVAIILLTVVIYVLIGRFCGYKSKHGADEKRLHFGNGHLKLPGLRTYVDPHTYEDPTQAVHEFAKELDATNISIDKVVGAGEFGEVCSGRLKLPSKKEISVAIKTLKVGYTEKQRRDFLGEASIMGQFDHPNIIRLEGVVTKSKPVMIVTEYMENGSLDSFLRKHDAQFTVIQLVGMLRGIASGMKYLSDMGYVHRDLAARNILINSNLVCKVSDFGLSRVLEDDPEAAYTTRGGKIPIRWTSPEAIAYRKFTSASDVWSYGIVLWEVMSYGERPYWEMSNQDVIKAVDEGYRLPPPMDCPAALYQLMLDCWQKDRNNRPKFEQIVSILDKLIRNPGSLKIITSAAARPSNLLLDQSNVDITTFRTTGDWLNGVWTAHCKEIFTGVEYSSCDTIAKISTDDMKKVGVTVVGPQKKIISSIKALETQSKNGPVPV

Structure (SMILES): CC(C)C(=O)Nc1nc2cc(-c3ccc4c(c3)c(C(=O)NC(C)c3ccccc3)cn4C)ccn2n1 (centres unmarked) [RI-962]
- activity at 10 µM [1]: 100%
- activity at 10 µM [2]: 99%
- activity at 10 µM [3]: 85%
- activity at 10 µM [4]: 114%
- activity at 10 µM [5]: 105%
- activity at 10 µM [6]: 85%
- activity at 10 µM [7]: 105%
- activity at 10 µM [8]: 92%
- activity at 10 µM [9]: 90%
- activity at 10 µM [10]: 88%
- activity at 10 µM [11]: 103%
- activity at 10 µM [12]: 94%
- activity at 10 µM [13]: 100%
- activity at 10 µM [14]: 111%
- activity at 10 µM [15]: 104%
- activity at 10 µM [16]: 120%
- activity at 10 µM [17]: 84%
- activity at 10 µM [18]: 102%
- activity at 10 µM [19]: 103%
- activity at 10 µM [20]: 71%
- activity at 10 µM [21]: 107%
- activity at 10 µM [22]: 93%
- activity at 10 µM [23]: 72%
- activity at 10 µM [24]: 76%
- activity at 10 µM [25]: 69%
- activity at 10 µM [26]: 100%

Reference: article PMC9653409, “Generative deep learning enables the discovery of a potent and selective RIPK1 inhibitor” (Nature Communications, 2022)
